According to US9963482B2, “Phosphatidylinositol-3-kinase inhibitor and pharmaceutical composition” (Tohoku University, priority 2011, dated 2018):
Where two headings read alike, the source gives them in different places.

How the values were obtained:
HCT116 cells [1] = assay: Western blotting for apoptosis, AKT and histone acetylation in HCT116 cells; assay type: cell-based, human; details: HCT116, 24 hours, 5 μM
Procedure: With regard to Western blotting, HCT116 cells were treated for 24 hours with SAHA or FK-228 at predetermined concentrations, and then the expression of PARP, cleaved PARP, phosphorylated AKT (S473), AKT, acetylated histone H3, and acetylated histone H4 was analyzed.

[2] = molecular target: T1, human p110α expressed in budding yeast (Homo sapiens, UniProt P42336); assay: Screening of PI3K inhibitor using budding yeast (recovery from cell proliferation disorder caused by p110α); assay type: cell-based; details: AD1-9 transformant expressing p110α, compound 5 μM, 24 hours, average of three tests
T1 construct: expressed in transfected cells; host or cells: Saccharomyces cerevisiae AD1-9 (LEU2-disrupted), galactose-induced
Procedure: AD1-9 strain can be obtained from Nader Nourizad (Stanford Genome Technology Center Stanford University, CA, USA).
The transformed AD 1-9 strain was cultured at 30° C. in a minimal complete medium SC-U-L containing no uracil and leucine or SGal-U-L in which 2% glucose was replaced with 2% galactose.
By using the aforementioned system, screening of the compound library, which was obtained from the Screening committee of anticancer drugs supported by grant-in-aid for scientific research on priority area “Cancer” from Ministry of Education, Culture, Sports, Science, and Technology, Japan, was performed. Each compound was added to SGal-U-L liquid medium to constitute a concentration of 0.5 μM or 5 μM and the transformant of AD 1-9 was cultured for 24 hours under shaking. Thereafter, A600 was measured. […] Three independent tests were repeatedly performed to calculate the average value of A600.

[3] = system: AKT pathway in PC3 (prostate cancer) cells; assay: AKT pathway inhibition by Western blotting in PC3 cells; assay type: cell-based, human; details: for expression level of phosphorylated AKT (Ser-473, Thr-308) over time: 5 to 180 minutes
Procedure: PC3 cells were obtained from Cell Resource Center for Medical Research of Institute of Development, Aging, and Cancer, Tohoku University. The cells were cultured at 37° C. in the presence of 5% CO2 by using RPMI1640 medium containing inactivated fetal bovine serum at the concentration of 10%.
Western blotting was performed as follows. Various kinds of the cells treated with each compound were collected and lysed in a lysis buffer (500 mM Tris-HCl pH 7.5, 100 mM NaCl, 2 mM EDTA, 1 mM sodium orthovanadate, 1% NP-40, and 1% protease inhibitor cocktail, manufactured by SIGMA-ALDRICH). After centrifugation, the supernatants were collected.
The followings were used as primary antibodies.
As a secondary antibody, “Alexa Fluor680IgG” (trade name, manufactured by Invitrogen) was used. By using “Odyssey Infrared Imaging System” (trade name, manufactured by LI-COR), expression of the protein of interest was determined.

HCT116 cells [4] = assay: FACS cell cycle analysis in HCT116 cells; assay type: cell-based, human; details: HCT116, 24 hours; SAHA 2.5 μM, LY294002 50 μM, FK228 or FK-A5 at low concentration
Procedure: The cells were collected, fixed with ethanol, stained with iodopropidium/PBS solution, and analyzed by using “Cytomics FC500 Flow Cytometry System” (trade name, manufactured by Beckman Coulter). The cell cycle fractions were calculated by using “Multicycle software” (trade name, manufactured by Phenomix Flow Systems).

PI3K (p110α/p85α) = molecular target: T2, PI3K (p110α/p85α) (Homo sapiens, UniProt P42336); assay: In vitro PI3K inhibitory activity by mobility shift assay (Carna Biosciences); assay type: biochemical; details: for PI3K activity inhibitory rate: compound 20 μM, 50 μM ATP
T2 construct: purchased Carna Biosciences, Inc. (Kobe); contract measurement
Procedure: The PI3K (p110α/p85α) inhibitory activity was evaluated at Carna Biosciences, Inc. (Kobe) by mobility shift assay which included isolation and quantification of a substrate and the phosphorylated substrate based on the mobility in a capillary (https://www.carnabio.com/japanese/product/search.cgi?mode=profiling). […] After allowing the reaction to occur for 5 hours at room temperature, the mobility shift assay was performed. The test was performed in duplicate.
Inhibition rate was calculated as follows.
The value of product/substrate+product when an agent was added thereto was calculated similarly, and the inhibition rate was calculated based on a difference from the control value.

HDAC1 = HDAC1 (Homo sapiens, UniProt Q13547); details: Table 2; cited from earlier work
HDAC6 = molecular target: T3, HDAC6 (Homo sapiens, UniProt Q9UBN7); details: Table 2; cited from earlier work
T3 sequence (Q9UBN7 1-1215): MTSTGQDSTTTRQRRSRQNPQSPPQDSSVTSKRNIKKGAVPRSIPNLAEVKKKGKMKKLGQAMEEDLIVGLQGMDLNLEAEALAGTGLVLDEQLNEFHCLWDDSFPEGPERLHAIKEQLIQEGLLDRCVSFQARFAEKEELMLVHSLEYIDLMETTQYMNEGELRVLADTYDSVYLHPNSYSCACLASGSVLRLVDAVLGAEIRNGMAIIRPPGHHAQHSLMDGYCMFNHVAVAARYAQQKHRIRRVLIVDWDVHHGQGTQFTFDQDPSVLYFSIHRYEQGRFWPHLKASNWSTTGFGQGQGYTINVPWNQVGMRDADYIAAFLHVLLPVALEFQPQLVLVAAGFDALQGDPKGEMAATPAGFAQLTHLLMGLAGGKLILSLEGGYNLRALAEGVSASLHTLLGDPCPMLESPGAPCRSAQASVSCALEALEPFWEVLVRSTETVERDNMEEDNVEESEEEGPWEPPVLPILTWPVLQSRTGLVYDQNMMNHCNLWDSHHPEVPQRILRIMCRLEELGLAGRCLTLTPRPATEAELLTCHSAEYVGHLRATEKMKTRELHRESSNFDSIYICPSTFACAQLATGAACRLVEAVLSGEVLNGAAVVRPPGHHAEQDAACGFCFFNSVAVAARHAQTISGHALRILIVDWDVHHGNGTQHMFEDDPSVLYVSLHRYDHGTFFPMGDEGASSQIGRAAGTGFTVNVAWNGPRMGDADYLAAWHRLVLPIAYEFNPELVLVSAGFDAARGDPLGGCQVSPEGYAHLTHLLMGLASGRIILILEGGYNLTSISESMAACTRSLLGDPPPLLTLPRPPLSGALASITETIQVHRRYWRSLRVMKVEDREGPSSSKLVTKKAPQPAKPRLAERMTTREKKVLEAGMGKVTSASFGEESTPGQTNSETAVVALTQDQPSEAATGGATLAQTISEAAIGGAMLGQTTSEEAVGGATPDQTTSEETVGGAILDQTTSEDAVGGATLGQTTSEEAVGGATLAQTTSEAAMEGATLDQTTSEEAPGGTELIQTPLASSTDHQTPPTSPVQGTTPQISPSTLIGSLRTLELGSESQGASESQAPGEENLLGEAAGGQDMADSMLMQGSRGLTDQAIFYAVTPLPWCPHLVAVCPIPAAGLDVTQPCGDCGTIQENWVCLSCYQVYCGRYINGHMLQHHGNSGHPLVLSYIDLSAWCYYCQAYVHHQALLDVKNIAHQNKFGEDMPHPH

[5] = Table 3, PI3K (p110α/p85α), read-out: PI3K IC50

T1 sequence (P42336 whole entry): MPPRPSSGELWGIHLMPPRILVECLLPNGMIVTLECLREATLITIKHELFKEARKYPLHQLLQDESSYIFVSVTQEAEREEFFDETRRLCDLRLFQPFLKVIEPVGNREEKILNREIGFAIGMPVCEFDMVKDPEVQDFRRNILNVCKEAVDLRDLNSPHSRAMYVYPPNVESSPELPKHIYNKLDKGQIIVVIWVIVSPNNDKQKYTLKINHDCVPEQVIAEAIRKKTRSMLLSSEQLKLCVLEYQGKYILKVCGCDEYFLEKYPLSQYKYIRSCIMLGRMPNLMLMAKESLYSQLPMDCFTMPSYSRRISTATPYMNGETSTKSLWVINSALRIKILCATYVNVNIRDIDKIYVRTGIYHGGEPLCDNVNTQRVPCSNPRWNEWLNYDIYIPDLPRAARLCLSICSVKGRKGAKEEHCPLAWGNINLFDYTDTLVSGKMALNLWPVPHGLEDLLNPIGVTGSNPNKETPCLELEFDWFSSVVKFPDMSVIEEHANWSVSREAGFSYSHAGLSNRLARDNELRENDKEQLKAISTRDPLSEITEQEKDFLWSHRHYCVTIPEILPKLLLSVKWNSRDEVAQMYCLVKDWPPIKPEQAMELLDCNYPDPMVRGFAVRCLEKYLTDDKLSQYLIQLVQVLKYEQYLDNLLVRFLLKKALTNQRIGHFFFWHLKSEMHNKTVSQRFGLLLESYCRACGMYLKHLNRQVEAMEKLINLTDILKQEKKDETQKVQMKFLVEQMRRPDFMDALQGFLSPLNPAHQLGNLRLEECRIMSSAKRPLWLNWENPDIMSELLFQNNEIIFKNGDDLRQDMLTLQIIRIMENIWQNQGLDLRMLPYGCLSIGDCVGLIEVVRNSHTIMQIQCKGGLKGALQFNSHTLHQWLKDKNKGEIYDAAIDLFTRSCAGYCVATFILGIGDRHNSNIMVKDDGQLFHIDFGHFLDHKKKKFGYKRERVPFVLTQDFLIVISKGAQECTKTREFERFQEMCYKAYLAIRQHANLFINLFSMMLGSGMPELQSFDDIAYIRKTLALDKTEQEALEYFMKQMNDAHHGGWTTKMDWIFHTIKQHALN
T2 sequence (P42336 whole entry): as above
T2 sequence (P27986 whole entry partner): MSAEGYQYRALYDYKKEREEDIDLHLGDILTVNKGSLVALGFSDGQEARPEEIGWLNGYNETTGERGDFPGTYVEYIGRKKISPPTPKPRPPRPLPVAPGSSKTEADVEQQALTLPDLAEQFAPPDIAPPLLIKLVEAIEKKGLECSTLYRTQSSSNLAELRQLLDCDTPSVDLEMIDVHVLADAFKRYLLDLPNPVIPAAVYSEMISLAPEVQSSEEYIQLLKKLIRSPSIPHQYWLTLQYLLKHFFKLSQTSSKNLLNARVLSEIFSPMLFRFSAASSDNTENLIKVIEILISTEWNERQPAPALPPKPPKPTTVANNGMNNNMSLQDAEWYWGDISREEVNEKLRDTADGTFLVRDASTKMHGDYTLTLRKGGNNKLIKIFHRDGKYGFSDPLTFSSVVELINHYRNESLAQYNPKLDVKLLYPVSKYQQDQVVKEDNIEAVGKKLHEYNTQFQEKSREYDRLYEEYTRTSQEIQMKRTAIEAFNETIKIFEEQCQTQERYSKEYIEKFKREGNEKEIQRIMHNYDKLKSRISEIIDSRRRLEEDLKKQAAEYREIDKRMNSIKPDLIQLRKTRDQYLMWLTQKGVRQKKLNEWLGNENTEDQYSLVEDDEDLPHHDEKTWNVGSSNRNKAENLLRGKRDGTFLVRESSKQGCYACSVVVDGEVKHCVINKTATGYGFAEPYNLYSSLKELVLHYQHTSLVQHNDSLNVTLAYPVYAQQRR
Chain of HDAC1 (Q13547 whole entry, species assumed): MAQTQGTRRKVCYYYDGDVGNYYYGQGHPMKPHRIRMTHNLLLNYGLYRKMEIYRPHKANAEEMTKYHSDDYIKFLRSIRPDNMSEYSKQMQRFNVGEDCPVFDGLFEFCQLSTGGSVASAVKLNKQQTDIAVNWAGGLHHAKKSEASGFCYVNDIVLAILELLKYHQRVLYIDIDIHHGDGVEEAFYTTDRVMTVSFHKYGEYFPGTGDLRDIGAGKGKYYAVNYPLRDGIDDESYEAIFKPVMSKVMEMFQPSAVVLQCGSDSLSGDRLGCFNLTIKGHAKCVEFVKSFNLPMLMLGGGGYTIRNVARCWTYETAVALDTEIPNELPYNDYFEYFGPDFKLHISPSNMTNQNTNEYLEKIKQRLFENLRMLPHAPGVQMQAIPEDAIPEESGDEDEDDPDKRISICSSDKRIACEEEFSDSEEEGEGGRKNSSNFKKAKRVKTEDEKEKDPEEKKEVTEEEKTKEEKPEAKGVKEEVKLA

C/C=C1\NC(=O)[C@H]2CSSCC/C=C/[C@H](CC(=O)N[C@H](C(C)C)C(=O)N2)OC(=O)[C@H](C(C)C)NC1=O [FK228, romidepsin]
Cleaved PARP (HCT116 cells [1]): increased most
expression of acetylated histone (HCT116 cells [1]): enhanced the expression of acetylated histone
phosphorylated AKT (HCT116 cells [1]): inhibited the phosphorylated AKT
A600 [2]: 0.385
expression level of phosphorylated AKT (Ser-473, Thr-308) over time ([3]; 10 μM): lowered the expression level of phosphorylated AKT (Ser-473, Thr-308)
lowering of expression level of phosphorylated AKT (S473) compared to control ([3]; 10 μM, 180 minutes): 66%
lowering of expression level of phosphorylated AKT (T308) compared to control ([3]; 10 μM, 180 minutes): 86%
phosphorylated ERK1/2 ([3]; 180 minutes): slightly inhibited
phosphorylated MEK1/2 ([3]; 180 minutes): not inhibited
expression levels of phosphorylated AKT, GSK-3β, mTOR, p70S6K and 4E-BP1 ([3]; 180 minutes, varying concentration): inhibited in a concentration dependent manner
cell cycle arrest (HCT116 cells [4]): induced cell cycle arrest, predominantly at G2/M phase
IC50 (PI3K (p110α/p85α); high ATP concentration (500 μM), read-out: IC50 for PI3K): 125 µM
inhibition at 10 µM (PI3K (p110α/p85α); read-out: inhibition rate in the PI3K inhibition curve): 6.5%
IC50 (PI3K (p110α/p85α); standard ATP concentration (50 μM), read-out: IC50 for PI3K): 57.2 µM

C/C=C1\NC(=O)C2CSSCC/C=C/C(CC(=O)N[C@H](C(C)C)C(=O)N2)OC(=O)CNC1=O (some centres unmarked) [FK-A1]
IC50 (HDAC1): 0.0078 µM
IC50 (HDAC6): 3.2 µM

CC(C)C1NC(=O)CC2/C=C/CCSSCC(NC1=O)C(=O)NCC(=O)NCC(=O)O2 (centres unmarked) [FK-A2]
IC50 (HDAC1): 0.045 µM
IC50 (HDAC6): 4.8 µM

CC(C)C1NC(=O)CC2/C=C/CCSSCC(NC1=O)C(=O)N[C@H](C)C(=O)NCC(=O)O2 (some centres unmarked) [FK-A3]
IC50 (HDAC1): 0.0042 µM
IC50 (HDAC6): 3.2 µM
A600 [2]: 0.380
PI3K activity inhibitory rate (PI3K (p110α/p85α)): higher inhibition rate than FK228

CC(C)[C@H]1NC(=O)CC2/C=C/CCSSCC(NC1=O)C(=O)N[C@@H](C)C(=O)NCC(=O)O2 (some centres unmarked) [FK-A4]
IC50 (HDAC1): 0.34 µM
IC50 (HDAC6): 2.1 µM

CC(C)[C@H]1NC(=O)CC2/C=C/CCSSCC(NC1=O)C(=O)N[C@@H](Cc1ccccc1)C(=O)NCC(=O)O2 (some centres unmarked) [FK-A6]
IC50 (HDAC1): 0.019 µM
IC50 (HDAC6): 2.9 µM
PI3K activity inhibitory rate (PI3K (p110α/p85α)): higher inhibition rate than FK228

CC(C)C[C@H]1NC(=O)C2CSSCC/C=C/C(CC(=O)N[C@H](C(C)C)C(=O)N2)OC(=O)CNC1=O (some centres unmarked) [FK-A7]
IC50 (PI3K (p110α/p85α); [5]): 32.2 µM

CC(C)C[C@@H]1NC(=O)C2CSSCC/C=C/C(CC(=O)N[C@H](C(C)C)C(=O)N2)OC(=O)CNC1=O (some centres unmarked) [FK-A8]
IC50 (PI3K (p110α/p85α); [5]): 44.7 µM

CC(C)[C@H]1NC(=O)CC2/C=C/CCSSCC(NC1=O)C(=O)N[C@H](Cc1ccc(O)cc1)C(=O)NCC(=O)O2 (some centres unmarked) [FK-A9]
IC50 (PI3K (p110α/p85α); [5]): 14.1 µM

COc1ccc(C[C@H]2NC(=O)C3CSSCC/C=C/C(CC(=O)N[C@H](C(C)C)C(=O)N3)OC(=O)CNC2=O)cc1 (some centres unmarked) [FK-A10]
IC50 (PI3K (p110α/p85α); [5]): 26.7 µM

CC(C)[C@H]1NC(=O)CC2/C=C/CCSSCC(NC1=O)C(=O)N[C@@H](Cc1cccc3ccccc13)C(=O)NCC(=O)O2 (some centres unmarked) [FK-A12]
IC50 (PI3K (p110α/p85α); [5]): 7.2 µM

CC(C)[C@H]1NC(=O)CC2/C=C/CCSSCC(NC1=O)C(=O)N[C@H](Cc1ccc3ccccc3c1)C(=O)NCC(=O)O2 (some centres unmarked) [FK-A13]
IC50 (PI3K (p110α/p85α); [5]): 8.5 µM

CC(C)[C@H]1NC(=O)CC2/C=C/CCSSCC(NC1=O)C(=O)N[C@H](Cc1ccc(F)cc1)C(=O)NCC(=O)O2 (some centres unmarked) [FK-A17]
IC50 (PI3K (p110α/p85α); [5]): 20.2 µM

O=c1cc(N2CCOCC2)oc2c(-c3ccccc3)cccc12 [LY294002]
A600 [2]: 0.482
expression level of phosphorylated AKT (Ser-473, Thr-308) over time ([3]; 10 μM): lowered the expression level of phosphorylated AKT (Ser-473, Thr-308)
cell cycle arrest (HCT116 cells [4]): induced arrest of G0/G1 phase

O=C(CCCCCCC(=O)Nc1ccccc1)NO [SAHA, suberoyl anilide hydroxamic acid]
cell cycle arrest (HCT116 cells [4]): induced arrest of G2/M phase

CC(C)C1NC(=O)C2CSSCC/C=C/C(CC(=O)N[C@H](C)C(=O)N2)OC(=O)C[C@@H]1O (some centres unmarked) [SP-1, spiruchostatin A]
IC50 (HDAC1): 0.0033 µM
IC50 (HDAC6): 1.6 µM
A600 [2]: 0.412

CC[C@H](C)C1NC(=O)C2CSSCC/C=C/C(CC(=O)N[C@H](C)C(=O)N2)OC(=O)C[C@@H]1O (some centres unmarked) [SP-2, spiruchastatin B]
IC50 (HDAC1): 0.0022 µM
IC50 (HDAC6): 1.4 µM

CC[C@@H](C)C1NC(=O)C2CSSCC/C=C/C(CC(=O)N[C@H](C)C(=O)N2)OC(=O)C[C@@H]1O (stereo partly drawn) [SP-3, 5″-epi-spiruchostatin B]
IC50 (HDAC1): 0.0024 µM
IC50 (HDAC6): 3.9 µM
A600 [2]: 0.464

CC(C)[C@H]1NC(=O)C2CSSCC/C=C/C(CC(=O)N[C@H](C(C)C)C(=O)N2)OC(=O)C[C@@H]1O (some centres unmarked) [SP-5, spiruchostatin D]
PI3K activity inhibitory rate (PI3K (p110α/p85α)): higher inhibition rate than FK228
